The results in this text go back to patent US8680159B2, “Bradykinin 1 receptor modulating compounds” (Gruenenthal GmbH, priority 2010, dated 2014).

Each structure is given as a SMILES string.

This experiment deals with T1, B1R receptor of the rat (CHO K1 cells stably transfected with the B1R gene of the rat) (Rattus norvegicus, UniProt P97583).
T1 construct: expressed in transfected cells; host or cells: CHO K1 cells (Chinese hamster ovary), stably transfected
T1 sequence (P97583 1-337): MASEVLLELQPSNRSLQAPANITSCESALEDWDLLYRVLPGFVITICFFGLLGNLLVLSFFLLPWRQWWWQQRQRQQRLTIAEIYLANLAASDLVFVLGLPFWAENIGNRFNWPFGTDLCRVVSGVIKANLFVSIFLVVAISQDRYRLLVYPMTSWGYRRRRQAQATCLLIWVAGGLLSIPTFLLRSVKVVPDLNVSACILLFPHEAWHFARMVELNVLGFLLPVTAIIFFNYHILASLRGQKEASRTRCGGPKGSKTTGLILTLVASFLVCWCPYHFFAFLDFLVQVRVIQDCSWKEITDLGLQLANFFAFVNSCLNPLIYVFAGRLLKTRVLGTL
Kind of experiment: Functional study on the bradykinin receptor 1 (B1R), Ca2+ fluorescence (Fluo-4) FLIPR/Novostar assay, rB1R cells. Particulars: CHO-K1, 10 μM, read-out: % Inhibition (r-B1R) at 10 μM. The format is cell-based. The method in brief: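 Stably transfected CHO K1 cells carrying human or rat B1R were Fluo-4 loaded and Ca2+ fluorescence read by FLIPR or Novostar. Compounds were added first at 10 μM for % activation, then the EC80 agonist was applied after 6-20 min (human: Lys-Des-Arg9-bradykinin; rat: Des-Arg9-bradykinin). % inhibition is relative to maximum achievable inhibition, and IC50 comes from concentration series.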
In the case of `Cc1cc(N2CCC(N(C)C(=O)c3ccc4c(c3)C(NS(=O)(=O)Cc3ccccc3F)CC4)CC2)cc(C)n1` (centres unmarked) [CC_H-323, N-[1-(2,6-Dimethyl-pyridin-4-yl)-piperidin-4-yl]-3-[[(2-fluorophenyl)-methylsulfonyl]amino]-N-methyl-2,3-dihydro-1H-indene-5-carboxylic acid amide], the inhibition (usually the change of the read-out against control, counted positive when it falls) at 10 µM was determined as 110%.

With `Cc1cc(N2CCC(N(C)C(=O)c3ccc4c(c3)C(NS(=O)(=O)CCc3ccccc3Cl)CC4)CC2)cc(C)n1` (centres unmarked) [CC_H-324, 3-[[2-(2-Chlorophenyl)-ethylsulfonyl]amino]-N-[1-(2,6-dimethyl-pyridin-4-yl)-piperidin-4-yl]-N-methyl-2,3-dihydro-1H-indene-5-carboxylic acid amide], the inhibition at 10 µM worked out at 108%.

With `Cc1cc(N2CCC(N(C)C(=O)c3ccc4c(c3)C(N(C)C(=O)c3cc(F)ccc3Cl)CC4)CC2)cc(C)n1` (centres unmarked) [CC_H-325, 3-[(2-Chloro-5-fluoro-benzoyl)-methyl-amino]-N-[1-(2,6-dimethyl-pyridin-4-yl)-piperidin-4-yl]-N-methyl-2,3-dihydro-1H-indene-5-carboxylic acid amide], the inhibition at 10 µM was determined as 112%.

Regarding `Cc1cc(N2CCC(N(C)C(=O)c3ccc4c(c3)C(N(C)C(=O)c3cc(C(F)(F)F)ccc3Cl)CC4)CC2)cc(C)n1` (centres unmarked) [CC_H-326, 3-[[2-Chloro-5-(trifluoromethyl)-benzoyl]-methyl-amino]-N-[1-(2,6-dimethyl-pyridin-4-yl)-piperidin-4-yl]-N-methyl-2,3-dihydro-1H-indene-5-carboxylic acid amide], the inhibition at 10 µM was determined as 112%.

`Cc1cc(N2CCC(N(C)C(=O)c3ccc4c(c3)C(N(C)C(=O)c3c(F)ccc(C)c3Cl)CC4)CC2)cc(C)n1` (centres unmarked) [CC_H-327, 3-[(2-Chloro-6-fluoro-3-methyl-benzoyl)-methyl-amino]-N-[1-(2,6-dimethyl-pyridin-4-yl)-piperidin-4-yl]-N-methyl-2,3-dihydro-1H-indene-5-carboxylic acid amide]: the inhibition at 10 µM was found to be 112%.

As to `Cc1cc(N2CCC(N(C)C(=O)c3ccc4c(c3)C(N(C)C(=O)c3cc(Cl)ccc3Cl)CC4)CC2)cc(C)n1` (centres unmarked) [CC_H-328, 3-[(2,5-Dichloro-benzoyl)-methyl-amino]-N-[1-(2,6-dimethyl-pyridin-4-yl)-piperidin-4-yl]-N-methyl-2,3-dihydro-1H-indene-5-carboxylic acid amide], the inhibition at 10 µM was 111%.

For `Cc1cc(N2CCC(N(C)C(=O)c3ccc4c(c3)C(N(C)C(=O)c3c(Cl)cccc3C(F)(F)F)CC4)CC2)cc(C)n1` (centres unmarked) [CC_H-329, 3-[[2-Chloro-6-(trifluoromethyl)-benzoyl]-methyl-amino]-N-[1-(2,6-dimethyl-pyridin-4-yl)-piperidin-4-yl]-N-methyl-2,3-dihydro-1H-indene-5-carboxylic acid amide], the inhibition at 10 µM was 111%.

Regarding `Cc1cc(N2CCC(N(C)C(=O)c3ccc4c(c3)C(N(C)C(=O)C3CCCCC3)CC4)CC2)cc(C)n1` (centres unmarked) [CC_H-330, 3-(Cyclohexanecarbonyl-methyl-amino)-N-[1-(2,6-dimethyl-pyridin-4-yl)-piperidin-4-yl]-N-methyl-2,3-dihydro-1H-indene-5-carboxylic acid amide], the inhibition at 10 µM is 111%.

For the compound `Cc1cc(N2CCC(N(C)C(=O)c3ccc4c(c3)C(N(C)C(=O)C3CC3)CC4)CC2)cc(C)n1` (centres unmarked) [CC_H-331, 3-(Cyclopropanecarbonyl-methyl-amino)-N-[1-(2,6-dimethyl-pyridin-4-yl)-piperidin-4-yl]-N-methyl-2,3-dihydro-1H-indene-5-carboxylic acid amide], the inhibition at 10 µM worked out at 104%.

As for `Cc1cc(N2CCC(N(C)C(=O)c3ccc4c(c3)C(N(C)C(=O)CC(C)(C)C)CC4)CC2)cc(C)n1` (centres unmarked) [CC_H-332, 3-(3,3-Dimethyl-butanoyl-methyl-amino)-N-[1-(2,6-dimethyl-pyridin-4-yl)-piperidin-4-yl]-N-methyl-2,3-dihydro-1H-indene-5-carboxylic acid amide], the inhibition at 10 µM stood at 111%.

Regarding `COCC(=O)N(C)C1CCc2ccc(C(=O)N(C)C3CCN(c4cc(C)nc(C)c4)CC3)cc21` (centres unmarked) [CC_H-333, N-[1-(2,6-Dimethyl-pyridin-4-yl)-piperidin-4-yl]-3-[(2-methoxy-acetyl)-methyl-amino]-N-methyl-2,3-dihydro-1H-indene-5-carboxylic acid amide], the inhibition at 10 µM was 84%.

In the case of `Cc1cc(N2CCC(N(C)C(=O)c3ccc4c(c3)C(N(C)S(=O)(=O)c3c(C)cccc3Cl)CC4)CC2)cc(C)n1` (centres unmarked) [CC_H-335, 3-[[(2-Chloro-6-methyl-phenyl)sulfonyl]-methyl-amino]-N-[1-(2,6-dimethyl-pyridin-4-yl)-piperidin-4-yl]-N-methyl-2,3-dihydro-1H-indene-5-carboxylic acid amide], the inhibition at 10 µM came to 110%.

For the compound `Cc1cc(N2CCC(N(C)C(=O)c3ccc4c(c3)C(N(C)C(=O)Nc3ccccc3Cl)CC4)CC2)cc(C)n1` (centres unmarked) [CC_H-336, 3-[[(2-Chlorophenyl)-carbamoyl]-methyl-amino]-N-[1-(2,6-dimethyl-pyridin-4-yl)-piperidin-4-yl]-N-methyl-2,3-dihydro-1H-indene-5-carboxylic acid amide], the inhibition at 10 µM is 97%.

As for `Cc1cc(N2CCC(N(C)C(=O)c3ccc4c(c3)C(N(C)C(=O)Nc3cccc(Cl)c3)CC4)CC2)cc(C)n1` (centres unmarked) [CC_H-337, 3-[[(3-Chlorophenyl)-carbamoyl]-methyl-amino]-N-[1-(2,6-dimethyl-pyridin-4-yl)-piperidin-4-yl]-N-methyl-2,3-dihydro-1H-indene-5-carboxylic acid amide], the inhibition at 10 µM is 110%.

In the case of `Cc1cc(N2CCC(N(C)C(=O)c3ccc4c(c3)C(N(C)C(=O)Nc3cccc(Cl)c3Cl)CC4)CC2)cc(C)n1` (centres unmarked) [CC_H-339, 3-[[(2,3-Dichloro-phenyl)-carbamoyl]-methyl-amino]-N-[1-(2,6-dimethyl-pyridin-4-yl)-piperidin-4-yl]-N-methyl-2,3-dihydro-1H-indene-5-carboxylic acid amide], the inhibition at 10 µM was 92%.

For `Cc1cc(N2CCC(N(C)C(=O)c3ccc4c(c3)C(N(C)C(=O)Nc3cc(Cl)cc(Cl)c3)CC4)CC2)cc(C)n1` (centres unmarked) [CC_H-341, 3-[[(3,5-Dichloro-phenyl)-carbamoyl]-methyl-amino]-N-[1-(2,6-dimethyl-pyridin-4-yl)-piperidin-4-yl]-N-methyl-2,3-dihydro-1H-indene-5-carboxylic acid amide], the inhibition at 10 µM turned out to be 95%.

Regarding `Cc1cc(N2CCC(N(C)C(=O)c3ccc4c(c3)C(N(C)C(=O)Nc3ccc(Cl)cc3Cl)CC4)CC2)cc(C)n1` (centres unmarked) [CC_H-342, 3-[[(2,4-Dichlorophenyl)-carbamoyl]-methyl-amino]-N-[1-(2,6-dimethyl-pyridin-4-yl)-piperidin-4-yl]-N-methyl-2,3-dihydro-1H-indene-5-carboxylic acid amide], the inhibition at 10 µM turned out to be 107%.

For `Cc1cc(N2CCC(N(C)C(=O)c3ccc4c(c3)C(N(C)C(=O)Nc3cc(C(F)(F)F)ccc3Cl)CC4)CC2)cc(C)n1` (centres unmarked) [CC_H-343, 3-[[[2-Chloro-5-(trifluoromethyl)-phenyl]-carbamoyl]-methyl-amino]-N-[1-(2,6-dimethyl-pyridin-4-yl)-piperidin-4-yl]-N-methyl-2,3-dihydro-1H-indene-5-carboxylic acid amide], the inhibition at 10 µM was 67%.

Turning to `Cc1cc(N2CCC(N(C)C(=O)c3ccc4c(c3)C(N(C)C(=O)Nc3ccc(Cl)cc3C(F)(F)F)CC4)CC2)cc(C)n1` (centres unmarked) [CC_H-344, 3-[[[4-Chloro-2-(trifluoromethyl)-phenyl]-carbamoyl]-methyl-amino]-N-[1-(2,6-dimethyl-pyridin-4-yl)-piperidin-4-yl]-N-methyl-2,3-dihydro-1H-indene-5-carboxylic acid amide], the inhibition at 10 µM was found to be 90%.

With `Cc1cc(N2CCC(N(C)C(=O)c3ccc4c(c3)C(N(C)C(=O)Nc3ccc(F)c(Cl)c3)CC4)CC2)cc(C)n1` (centres unmarked) [CC_H-346, 3-[[(3-Chloro-4-fluoro-phenyl)-carbamoyl]-methyl-amino]-N-[1-(2,6-dimethyl-pyridin-4-yl)-piperidin-4-yl]-N-methyl-2,3-dihydro-1H-indene-5-carboxylic acid amide], the inhibition at 10 µM was 70%.

For the compound `Cc1ccc(NC(=O)N(C)C2CCc3ccc(C(=O)N(C)C4CCN(c5cc(C)nc(C)c5)CC4)cc32)c(C)c1` (centres unmarked) [CC_H-347, 3-[[(2,4-Dimethyl-phenyl)-carbamoyl]-methyl-amino]-N-[1-(2,6-dimethyl-pyridin-4-yl)-piperidin-4-yl]-N-methyl-2,3-dihydro-1H-indene-5-carboxylic acid amide], the inhibition at 10 µM was 57%.

On to `Cc1cc(N2CCC(N(C)C(=O)c3ccc4c(c3)C(N(C)C(=O)N(C)c3ccccc3Cl)CC4)CC2)cc(C)n1` (centres unmarked) [CC_H-349, 3-[[(2-Chlorophenyl)-methyl-carbamoyl]-methyl-amino]-N-[1-(2,6-dimethyl-pyridin-4-yl)-piperidin-4-yl]-N-methyl-2,3-dihydro-1H-indene-5-carboxylic acid amide], for which the inhibition at 10 µM turned out to be 80%.

In the case of `Cc1cc(N2CCC(N(C)C(=O)c3ccc4c(c3)C(N(C)C(=O)N(C)c3ccc(Cl)cc3Cl)CC4)CC2)cc(C)n1` (centres unmarked) [CC_H-350, 3[[(2,4-Dichlorophenyl)-methyl-carbamoyl]-methyl-amino]-N-[1-(2,6-dimethyl-pyridin-4-yl)-piperidin-4-yl]-N-methyl-2,3-dihydro-1H-indene-5-carboxylic acid amide], the inhibition at 10 µM worked out at 108%.
